We go through one compound from article PMC10130856 (Heliyon, 2023).

The target in the test is hen egg-white lysozyme (HEWL) (Gallus gallus, UniProt P00698). As to the kind of experiment: intrinsic tryptophan fluorescence quenching. It is filed as binding. The note with it: pH 7.4, 20 mM sodium phosphate, 298.15 K, 5 μM protein; double-log.

Structures are written as SMILES.

Chain of hen egg-white lysozyme (HEWL) (P00698 19-147): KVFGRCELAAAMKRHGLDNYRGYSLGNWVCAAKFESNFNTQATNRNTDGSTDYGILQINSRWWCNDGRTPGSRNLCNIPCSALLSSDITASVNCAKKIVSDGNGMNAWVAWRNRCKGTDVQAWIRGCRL

On to `CCCCC(=O)N(Cc1ccc(-c2ccccc2-c2nn[nH]n2)cc1)[C@H](C(=O)O)C(C)C` [valsartan], for which the “Kb(M^-1)” value is 2.96 × 10^8±0.21 M^−1.
